The numbers were not newly measured in paper PMC2063322, “Phase I trial and pharmacokinetics of the tubulin inhibitor 1069C85--a synthetic agent binding at the colchicine site designed to overcome multidrug resistance” (British Journal of Cancer, 1997), which cites them from elsewhere.

The structures appear in SMILES notation. Like-named read-outs stand apart in the source and are kept apart here.

For data set [1] the following is noted: 1995, cited from earlier work.
Details of data set [2]: method as in van Asperen et al (1996). Particulars: ref van Asperen et al (1996); cited from earlier work.

Regarding `CCOC(=O)Nc1cc2c(c(N)n1)N=C(c1ccccc1)[C@H](C)N2` [CI-980], the dose limiting toxicity result in data set [1] (24 h-infusion schedule, ataxia, confusion and coma, ref Sklarin et al) is “dose limiting central neurotoxicity”; in data set [1] (72 h-infusion, ref Rowinsky et al) it was “dose limiting myelosuppression”. With `CC[C@]1(O)C[C@@H]2CN(CCc3c([nH]c4ccccc34)[C@@](C(=O)OC)(c3cc4c(cc3OC)N(C)[C@H]3[C@@](O)(C(=O)OC)[C@H](OC(C)=O)[C@]5(CC)C=CCN6CC[C@]43[C@@H]65)C2)C1` [vinblastine], the “accumulation of drug in the brains of P-glycoprotein-deficient versus wild-type mice” value in data set [2] is “substantially greater accumulation”.
